Consider four compounds from US5985261A, “Use of thioredoxin-like molecules for induction of MnSOD to treat oxidative damage” (National Jewish Medical and Research Center, priority 1997, dated 1999).

The subject of this assay is MnSOD mRNA in A549 cells. Description: Effect on MnSOD mRNA induction by thioredoxin in A549 cells (Northern blot). Type of assay: cell-based, human. Here is the method:
Reduced thioredoxin (recombinant, E. coli; Promega) was prepared by treating 1 mM thioredoxin with 2 mM dithiothreitol (DTT) for 20 min at room temperature followed by removal of excess DTT using a G-25 spin column. A549 cells were grown in F-12K medium with 10% serum. Confluent monolayers were treated with oxidized thioredoxin (3 or 7 μM), with and without the thioredoxin reducing system [thioredoxin reductase (0.1 μM)+NADPH (2 mM)]. Incubations were for 16 hours. Total RNA was isolated from cells by guanidine isothiocyanate lysis and cesium chloride centrifugation of the lysate (147,000× g, 20-25° C.) in an ultracentrifuge (Beckman) by the methods of Sambrook et al., ibid. Total RNA was quantified spectrophotometrically.
Twenty micrograms of RNA was resolved by electrophoresis in 1% agarose, 2.5 M formaldehyde gel in a buffer containing 20 mM MOPS and 1 mM EDTA (pH 7.4). RNA was transferred to nitrocellulose and blots were prehybridized 2-12 hours in 50% formamide, 0.75 M sodium chloride, 0.075 M sodium citrate (pH 7.0), 5× Denhardt's solution, 50 μg/ml salmon sperm DNA, and 0.1% SDS at 42° C. Blots were hybridized with cDNA for MnSOD labeled to a specific activity of 2-7×10^7 cpm using ^32 P-γ CTP (ICN) in hybridization solution at 42° C. overnight and then were washed in 0.3 M sodium chloride, 0.03 M sodium citrate, 0.1% SDS at 42° C. Autoradiographs were made by exposing blots to x-ray film (Kodak) at -70° C. with intensifying screens. Blots were exposed to phosphor-imager screens (Molecular Dynamics) and densitometry was performed with a Macintosh computer using MD Image Quant Version 3.35.
To evaluate the effect of oxidation of TRX-SH2 on MnSOD induction, A549 cells were incubated with diamide (2 mM; 30 min) or CDNB (100 μM; 45 min). After incubation, cells were washed and fresh medium added. The cells next were incubated with oxidized thioredoxin (28 μM; 6 h) and then processed for Northern analysis as described in Example 2.
A549 cells were incubated with actinomycin D ([…]), a transcriptional inhibitor, or cyclohexamide (10 μg/ml), a translation inhibitor, for 1 hour followed by addition of thioredoxin (28 μM) and further incubation for a period of 16 hours. mRNA was quantified as previously described.

Starred links: 1 amine or outer side, 2 acyl side, 3 side chain; linkers in the order of their positions; H or OH if unused. Positions of bridges follow the written chain, without caps; N, C: chain ends. Non-standard residues stand in square brackets, D forms with d. Residues, ends and D or L forms follow the SMILES beside them. Chains are numbered I, II in the order given. Actinocin(9to1) = Cc1c2oc3c(C)ccc(C(=O)[*:1])c3nc-2c(C(=O)[*:2])c(N)c1=O; NMeV = CN[C@H](C(=O)O)C(C)C; Sar = CNCC(=O)O

In the case of `CN(C)C(=O)/N=N/C(=O)N(C)C` [diamide], the “effect on elevation of MnSOD mRNA by thioredoxin” value (diamide 2 mM, 30 min, washed, then oxidized thioredoxin 28 μM, 6 h) was “prevented elevation of MnSOD mRNA by thioredoxin”.
For the compound `Cc1c2oc3c(C)ccc(C(=O)N[C@@H]4C(=O)N[C@H](C(C)C)C(=O)N5CCC[C@H]5C(=O)N(C)CC(=O)N(C)[C@@H](C(C)C)C(=O)O[C@@H]4C)c3nc-2c(C(=O)N[C@@H]2C(=O)N[C@H](C(C)C)C(=O)N3CCC[C@H]3C(=O)N(C)CC(=O)N(C)[C@@H](C(C)C)C(=O)O[C@@H]2C)c(N)c1=O` [actinomycin D] (I: T[dV]P[Sar][NMeV] / II: T[dV]P[Sar][NMeV]; ester I:1-I:C, II:1-II:C; linker I:N-II:N via Actinocin(9to1)), the “effect on production of MnSOD mRNA” value (actinomycin D, 1 hour, then thioredoxin 28 μM, 16 hours) is “inhibited”.
For `O=[N+]([O-])c1ccc(Cl)c([N+](=O)[O-])c1` [CDNB], the “effect on increased expression of MnSOD mRNA by thioredoxin” value (CDNB 100 μM, 45 min, washed, then oxidized thioredoxin 28 μM, 6 h) is “prevented increased expression of MnSOD mRNA by thioredoxin”.
As to `C[C@@H]1C[C@@H]([C@H](O)CC2CC(=O)NC(=O)C2)C(=O)[C@@H](C)C1` [Cycloheximide, cycloheximide], under “cyclohexamide 10 μg/ml, 1 hour, then thioredoxin 28 μM, 16 hours”, the “effect on thioredoxin-mediated increase in MnSOD mRNA” value was “potentiated the thioredoxin-mediated increase in MnSOD mRNA”.
